# According to patent publication US20140350273A1, “PEDIATRIC USES OF CABAZITAXEL” (AVENTIS PHARMA S.A., priority 2012, published 2014):
# Read-outs that look alike come from different tables or passages of the source.
# System: human Ewing's sarcoma SK-ES-1
# Format: in vivo
# Design: Tumor volume changes from baseline: Median (nMad): unit not given here
# Protocol: This efficacy may be quantified, for example, as changes in tumor volume for each treated (T) and control (C) group, which are calculated for each animal and each day by subtracting the tumor volume on the day of first treatment (staging day) from the tumor volume on the specified observation day. This allows calculating the tumor growth inhibition: ΔT/ΔC=(median delta T/median delta C)×100. Individual tumor volume changes from baseline are thereafter analyzed by a non-parametric two-way ANOVA-TYPE (with factors: group and repeated days) followed by a post-hoc contrasts analysis, with Bonferroni-Holm adjustment for multiplicity, comparing all treated groups to the control group. […] A probability less than 5% (p<0.05) was considered as significant.
# Based on the National Cancer Institute (NCl) standards, a ΔT/ΔC≦40% is the minimal level required to declare activity.
# The tumor doubling time (in days; Td) was estimated from the plot of the log linear growth of the control group tumors in exponential growth (100 to 1000 mm^3 range) [T. H. Corbett et al., Cancer, 40: 2660-2680 (1977); F. M. Schabel et al., Cancer Drug Development, Part B, Methods in Cancer Research, 17: 3-51, New York, Academic Press Inc. (1979)].
# This efficacy may also be quantified by the number of tumor regressions observed after therapy. Individual mice reporting a tumor volume ≦50% of the Day 0 measurement for two consecutive measurements over a seven day period were considered partial responders (PR). Individual mice lacking palpable tumors (<4×4 mm^2 for two consecutive measurements over a seven day period) were classified as complete responders (CR); a CR that persisted until study completion was considered a tumor-free survivor (TFS).
# The efficacy of cabazitaxel in comparison with docetaxel on pediatric solid tumors was determined experimentally in the following manner:
# The animals subjected to the experiment are subcutaneously grafted unilaterally with approximately 30 mg of a tumor fragment on day 0. The animals are implanted with a human tumor xenografted in immunocompromized mice. Several days post tumor implantation, mice are randomized according to their body weight to the different groups of treatments and controls. The animals are observed every day. The different animal groups are weighed daily during treatment until the maximum weight loss is reached and subsequent full weight recovery has occurred. The groups are then weighed once or twice a week until the end of the trial.
# The tumors are measured 1 to 5 times a week, depending on the tumor doubling time, until the tumor reaches approximately 1,000 mm^3, or until the animal dies (if this occurs before the tumor reaches 1,000 mm^3). The animals are necropsied immediately after euthanasia or death.
# The selected tumor model was a human Ewing's sarcoma SK-ES-1, xenografted in SCID mice [Fogh J. New York: Plenum Press, 1975].
# Cabazitaxel and docetaxel were weighed for each treatment and dissolved in ethanol. Treatment solutions were prepared first by mixing 1 volume of ethanolic stock solution and 1 volume of polysorbate 80, then by adding 18 volumes of glucose 5% in water.
# The Td in days was estimated from the plot of the log linear growth of the control group tumors in exponential growth (100 to 1,000 mm^3 range) and the number of tumor regressions observed after therapy.
# The following end points have been used: • Toxicity was declared at dosages inducing ≧20% body weight loss or ≧10% drug death; • Relative tumor growth inhibition was determined on day 22 post tumor implantation when the median tumor size in the control group was 456 mm^3; • Antitumor efficacy was determined by calculating the ΔT/ΔC value in percent, according to the above-mentioned formula; • Tumor regressions (as explained above); • Statistical analysis performed (as explained above).
# [1] = 3.5 mg/kg per injection (total 7.0) IV days 15; 19
# [2] = 5.6 mg/kg per injection (total 11.2) IV days 15; 19
# [3] = 5.6 mg/kg per injection (total 11.2) IV days 15; 19; listed as CABAZITAXEL
# [4] = 9.0 mg/kg per injection (total 18) IV days 15; 19
# [5] = 9.0 mg/kg per injection (total 18) IV days 15; 19; listed as CABAZITAXEL
# [6] = 14.5 mg/kg per injection (total 29) IV days 15; 19
# [7] = 14.5 mg/kg per injection (total 29) IV days 15; 19; listed as CABAZITAXEL
smiles,measurement,setting,value
"CO[C@H]1C(=O)[C@]2(C)[C@@H](OC)C[C@H]3OC[C@@]3(OC(C)=O)[C@H]2[C@H](OC(=O)c2ccccc2)[C@]2(O)C[C@H](OC(=O)[C@H](O)[C@@H](NC(=O)OC(C)(C)C)c3ccccc3)C(C)=C1C2(C)C [Cabazitaxel, 4α-acetoxy-2α-benzoyloxy-5β,20-epoxy-1β-hydroxy-7β,10β-dimethoxy-9-oxo-11-taxen-13α-yl (2R,3S)-3-tert-butoxycarbonyl-amino-2-hydroxy-3-phenylpropionate]",Average body weight change in % per mouse at nadir,[1],−4.4%
same,Biological interpretation,[1],active
same,Drug death,[1],0/7
same,Regressions Complete,[1],0/7
same,Regressions Partial,[1],0/7
same,Tumor free survivors at day 120,[1],0/7
same,day of nadir,[1],16 days
same,ΔT/ΔC in % (day 22),[1],22%
same,Biological interpretation,3.5 mg/kg per injection (total 7.0) IV days 15; 19; listed as CABAZITAXEL,Active
same,Tumor volume changes from baseline: Median (nMad),"3.5 mg/kg, day 19",32
same,Tumor volume changes from baseline: Median (nMad),"3.5 mg/kg, day 22",41
same,Tumor volume changes from baseline: Median (nMad),"3.5 mg/kg, day 25",180
same,Tumor volume changes from baseline: Median (nMad),"3.5 mg/kg, day 28",499
same,Tumor volume changes from baseline: Median (nMad),3.5 mg/kg; day 19,32 (207.6)
same,Tumor volume changes from baseline: Median (nMad),3.5 mg/kg; day 22,41 (108.2)
same,Tumor volume changes from baseline: Median (nMad),3.5 mg/kg; day 25,180 (100.8)
same,Tumor volume changes from baseline: Median (nMad),3.5 mg/kg; day 28,499 (324.7)
same,Average body weight change in % per mouse at nadir,[2],−4.2%
same,Biological interpretation,[2],highly active
same,Drug death,[2],0/7
same,Regressions Complete,[2],0/7
same,Regressions Partial,[2],7/7
same,Tumor free survivors at day 120,[2],0/7
same,day of nadir,[2],16 days
same,Biological interpretation,[3],Highly Active
same,ΔT/ΔC in % (day 22),[3],<0%
same,PR,5.6 mg/kg per injection IV days 15; 19,100%
same,Tumor volume changes from baseline: Median (nMad),"5.6 mg/kg, day 19",−31
same,Tumor volume changes from baseline: Median (nMad),"5.6 mg/kg, day 22",−126
same,Tumor volume changes from baseline: Median (nMad),"5.6 mg/kg, day 25",−157
same,Tumor volume changes from baseline: Median (nMad),"5.6 mg/kg, day 28",−157
same,Tumor volume changes from baseline: Median (nMad),5.6 mg/kg; day 19,−31 (87.5)
same,Tumor volume changes from baseline: Median (nMad),5.6 mg/kg; day 22,−126 (86)
same,Tumor volume changes from baseline: Median (nMad),5.6 mg/kg; day 25,−157 (81.5)
same,Tumor volume changes from baseline: Median (nMad),5.6 mg/kg; day 28,−157 (81.5)
same,Tumor volume changes from baseline: Median (nMad),5.6 mg/kg; day 32,−128 (112.7)
same,Tumor volume changes from baseline: Median (nMad),5.6 mg/kg; day 35,−157 (112.7)
same,Average body weight change in % per mouse at nadir,[4],−6.3%
same,Biological interpretation,[4],highly active
same,Drug death,[4],0/7
same,Regressions Complete,[4],0/7
same,Regressions Partial,[4],7/7
same,Tumor free survivors at day 120,[4],0/7
same,day of nadir,[4],16 days
same,Biological interpretation,[5],Highly Active
same,ΔT/ΔC in % (day 22),[5],<0%
same,PR,9 mg/kg per injection IV days 15; 19,100%
same,Tumor volume changes from baseline: Median (nMad),"9 mg/kg, day 19",25
same,Tumor volume changes from baseline: Median (nMad),"9 mg/kg, day 22",−137
same,Tumor volume changes from baseline: Median (nMad),"9 mg/kg, day 25",−227
same,Tumor volume changes from baseline: Median (nMad),"9 mg/kg, day 28",−227
same,Tumor volume changes from baseline: Median (nMad),9 mg/kg; day 19,25 (37.1)
same,Tumor volume changes from baseline: Median (nMad),9 mg/kg; day 22,−137 (60.8)
same,Tumor volume changes from baseline: Median (nMad),9 mg/kg; day 25,−227 (100.8)
same,Tumor volume changes from baseline: Median (nMad),9 mg/kg; day 28,−227 (100.8)
same,Tumor volume changes from baseline: Median (nMad),9 mg/kg; day 32,−231 (78.6)
same,Tumor volume changes from baseline: Median (nMad),9 mg/kg; day 35,−231 (78.6)
same,Average body weight change in % per mouse at nadir,[6],−7.1%
same,Biological interpretation,[6],highly active
same,Drug death,[6],0/7
same,Regressions Complete,[6],6/7
same,Regressions Partial,[6],7/7
same,Tumor free survivors at day 120,[6],3/7
same,day of nadir,[6],20 days
same,Biological interpretation,[7],Highly Active
same,ΔT/ΔC in % (day 22),[7],<0%
same,Tumor volume changes from baseline: Median (nMad),"14.5 mg/kg, day 19",−108
same,Tumor volume changes from baseline: Median (nMad),"14.5 mg/kg, day 22",−203
same,Tumor volume changes from baseline: Median (nMad),"14.5 mg/kg, day 25",−221
same,Tumor volume changes from baseline: Median (nMad),"14.5 mg/kg, day 28",−221
same,Tumor volume changes from baseline: Median (nMad),14.5 mg/kg; day 19,−108 (91.9)
same,Tumor volume changes from baseline: Median (nMad),14.5 mg/kg; day 22,−203 (87.5)
same,Tumor volume changes from baseline: Median (nMad),14.5 mg/kg; day 25,−221 (81.5)
same,Tumor volume changes from baseline: Median (nMad),14.5 mg/kg; day 28,−221 (81.5)
same,Tumor volume changes from baseline: Median (nMad),14.5 mg/kg; day 32,−221 (87.5)
same,Tumor volume changes from baseline: Median (nMad),14.5 mg/kg; day 35,−221 (87.5)
same,Tumor volume changes from baseline: Median (nMad),14.5 mg/kg; day 39,−221 (108.2)
same,Tumor volume changes from baseline: Median (nMad),14.5 mg/kg; day 41,−221 (140.8)
same,Tumor volume changes from baseline: Median (nMad),14.5 mg/kg; day 43,−221 (140.8)
same,Tumor volume changes from baseline: Median (nMad),14.5 mg/kg; day 45,−144 (222.4)
same,antitumor activity compared with docetaxel,conclusion of example 3,more also active than docetaxel
